Data taken from US10874334B1, “Methods and systems for quantification of blood-brain barrier permeation of glycosylated peptides” (ARIZONA BOARD OF REGENTS ON BEHALF OF THE UNIVERSITY OF …, priority 2016, dated 2020).

Assays:
[1] = Degradation study of enkephalins spiked into rodent serum (FIA-MS^n); conditions: for stability (degradation) in serum with 5% acetic acid: rat serum + 5% acetic acid (HAc), 60-minute period before measurements (Ser+HAc+60 min); for stability (degradation) in serum: rat serum, peptides incubated in serum for 60 minutes prior to the study (Ser+60 min)
Protocol: Ser refers to when Enkephalins were added to rat serum and degradation was allowed to proceed and the remaining enkephalin levels were measured at specific time points. […] Ser+HAc+60 min refers to when 5% acetic acid (HAc) was added to the serum, preserving enkephalins by inhibiting degradation during a 60 minute period before beginning measurements (Ser+HAc+60 min.). All error bars are SEM. Statistical significance is indicated by asterisks when p<0.05.
Degradation studies of enkephalins in biological fluids were performed by […]. […] Enkephalins were added to rat serum and degradation was allowed to proceed and the remaining enkephalin levels were measured at specific time points (Ser).

[2] = Degradation study of enkephalins spiked into cerebral spinal fluid (CSF) from rats; conditions: for stability (degradation) in CSF with 5% HAc: CSF from rats + 5% HAc (+CSF+HAc), compared with isotonic aCSF

Compound	stability (degradation) in serum with 5% acetic acid [1]	stability (degradation) in serum [1]	stability (degradation) in CSF ([2]; CSF from rats (+CSF), single exponential decay fit)	stability (degradation) in CSF with 5% HAc [2]
CC(C)C[C@H](NC(=O)[C@H](Cc1ccccc1)NC(=O)CNC(=O)CNC(=O)[C@@H](N)Cc1ccc(O)cc1)C(=O)O [Leu-Enkephalin, leucine enkephalin]	preserved enkephalins by inhibiting degradation	degradation was already complete	degradation occurs in CSF over 20 minutes	prevents the degradation
methionine enkephalin [Met-Enkephalin]	preserved enkephalins by inhibiting degradation	degradation was already complete	–	prevents the degradation
